Where a name gives a salt, the structure may show the parent alone. A value given as a limit tells only on which side of the number the result lay.

In patent US10092570B2 (Incyte Corporation, priority 2011, dated 2018) one finds IC50 data, which are given here for 25 molecules.

The target of the assay is PI3Kδ (p110δ/p85α) (Homo sapiens (Human), UniProt O00329). Put plainly: Example A3: PI3Kδ scintillation proximity assay. The conditions noted are these: scintillation proximity assay, 20 μM ATP, 4 nM PI3Kδ; read-out: PI3Kδ SPA IC50. Type of assay: biochemical. The protocol:
[γ-^33P]ATP (10 mCi/mL) was purchased from Perkin-Elmer (Waltham, Mass.). […] PI3Kδ (p110δ/p85α) was purchased from Millipore (Bedford, Mass.). ATP, MgCl2, DTT, EDTA, MOPS and CHAPS were purchased from Sigma-Aldrich (St. Louis, Mo.). Wheat Germ Agglutinin (WGA) YSi SPA Scintillation Beads was purchased from GE healthcare life sciences (Piscataway, N.J.).
The kinase reaction was conducted in polystyrene 384-well matrix white plate from Thermo Fisher Scientific in a final volume of 25 μL. Inhibitors were first diluted serially in DMSO and added to the plate wells before the addition of other reaction components. The final concentration of DMSO in the assay was 0.5%. The PI3K assays were carried out at room temperature in 20 mM MOPS, pH 6.7, 10 mM MgCl2, 5 mM DTT and CHAPS 0.03%. Reactions were initiated by the addition of ATP, the final reaction mixture consisted of 20 μM PIP2, 20 μM ATP, 0.2 μCi [γ-^33P] ATP, 4 nM PI3Kδ. […] 25 mM EDTA, 400 μM ATP. The final concentration of SPA beads was 1.0 mg/mL. After the plate sealing, plates were shaken overnight at room temperature and centrifuged at 1800 rpm for 10 minutes, the radioactivity of the product was determined by scintillation counting on Topcount (Perkin-Elmer). IC50 determination was performed by fitting the curve of percent control activity versus the log of the inhibitor concentration using the GraphPad Prism 3.0 software.
In general terms: Scintillation proximity formats need no separation of bound from free tracer.

PI3Kδ (p110δ/p85α), sequence (O00329 whole entry): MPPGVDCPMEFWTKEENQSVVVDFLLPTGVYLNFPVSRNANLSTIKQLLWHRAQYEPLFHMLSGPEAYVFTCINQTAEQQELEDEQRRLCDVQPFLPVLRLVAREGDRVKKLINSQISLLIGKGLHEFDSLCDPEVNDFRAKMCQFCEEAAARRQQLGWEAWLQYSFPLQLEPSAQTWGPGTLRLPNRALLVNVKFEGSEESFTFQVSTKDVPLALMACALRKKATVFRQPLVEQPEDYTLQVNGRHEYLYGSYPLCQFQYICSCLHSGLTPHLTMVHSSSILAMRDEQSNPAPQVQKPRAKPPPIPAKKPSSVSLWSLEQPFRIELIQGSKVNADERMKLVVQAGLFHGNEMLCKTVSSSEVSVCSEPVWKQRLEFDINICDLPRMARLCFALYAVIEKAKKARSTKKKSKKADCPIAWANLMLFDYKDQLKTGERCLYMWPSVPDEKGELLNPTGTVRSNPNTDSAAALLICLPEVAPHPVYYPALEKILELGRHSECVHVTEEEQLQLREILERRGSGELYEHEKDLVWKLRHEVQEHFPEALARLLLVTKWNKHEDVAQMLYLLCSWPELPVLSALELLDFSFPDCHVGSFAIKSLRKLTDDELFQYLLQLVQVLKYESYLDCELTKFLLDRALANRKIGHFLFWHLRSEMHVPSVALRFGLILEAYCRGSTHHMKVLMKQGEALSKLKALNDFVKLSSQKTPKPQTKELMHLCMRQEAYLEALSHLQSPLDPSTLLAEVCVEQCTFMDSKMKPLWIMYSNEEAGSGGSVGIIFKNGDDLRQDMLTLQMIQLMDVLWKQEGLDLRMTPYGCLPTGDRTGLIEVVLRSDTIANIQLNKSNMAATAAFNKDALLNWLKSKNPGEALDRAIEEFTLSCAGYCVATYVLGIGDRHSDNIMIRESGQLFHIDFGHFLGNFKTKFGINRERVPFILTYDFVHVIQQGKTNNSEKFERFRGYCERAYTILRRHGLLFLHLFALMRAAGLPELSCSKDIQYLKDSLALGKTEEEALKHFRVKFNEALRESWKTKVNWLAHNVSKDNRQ
PI3Kδ (p110δ/p85α), sequence (P27986 whole entry partner): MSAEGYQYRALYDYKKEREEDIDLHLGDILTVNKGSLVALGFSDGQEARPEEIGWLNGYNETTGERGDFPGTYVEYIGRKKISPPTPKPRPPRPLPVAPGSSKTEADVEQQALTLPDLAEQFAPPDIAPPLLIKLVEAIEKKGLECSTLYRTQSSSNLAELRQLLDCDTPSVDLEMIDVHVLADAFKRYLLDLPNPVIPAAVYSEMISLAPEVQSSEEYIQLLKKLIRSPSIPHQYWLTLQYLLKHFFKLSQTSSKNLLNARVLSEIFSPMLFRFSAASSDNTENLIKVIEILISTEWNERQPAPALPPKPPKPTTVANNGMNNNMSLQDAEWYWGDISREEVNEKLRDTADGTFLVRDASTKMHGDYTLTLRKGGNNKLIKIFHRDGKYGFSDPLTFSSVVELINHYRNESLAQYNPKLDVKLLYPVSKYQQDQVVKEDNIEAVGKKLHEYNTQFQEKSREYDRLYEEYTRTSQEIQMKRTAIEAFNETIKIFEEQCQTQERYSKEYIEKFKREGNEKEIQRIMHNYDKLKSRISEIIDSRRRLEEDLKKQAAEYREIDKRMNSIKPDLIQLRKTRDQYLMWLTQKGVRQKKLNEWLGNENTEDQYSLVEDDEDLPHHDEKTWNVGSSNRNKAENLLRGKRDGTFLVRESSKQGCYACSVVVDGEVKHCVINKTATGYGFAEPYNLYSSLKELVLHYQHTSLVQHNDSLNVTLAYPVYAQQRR

As a reminder, the IC50 is the concentration that gives 50% inhibition. `CCOc1c(C(C)n2nc(C)c3c(N)ncnc32)cc(Cl)c(C#N)c1-c1ccc(C(=O)N(C)C)nc1` (racemic) [Example 44, 5-(3-(1-(4-amino-3-methyl-1H-pyrazolo[3,4-d]pyrimidin-1-yl)ethyl)-5-chloro-6-cyano-2-ethoxyphenyl)-N,N-dimethylpicolinamide]: the IC50 was below 10 nM.
In the case of `COc1c(C(C)n2nc(C)c3c(N)ncnc32)cc(Cl)c(C)c1C1CN(CC(C)(C)O)C1` (stereo not shown) [Example 158, 1-(3-{3-[1-(4-Amino-3-methyl-1H-pyrazolo[3,4-d]pyrimidin-1-yl)ethyl]-5-chloro-2-methoxy-6-methylphenyl}azetidin-1-yl)-2-methylpropan-2-ol] it was below 10 nM.
In the case of `COc1c(C(C)n2nc(C)c3c(N)ncnc32)cc(Cl)c(C)c1C1CN(CC(C)C)C1` (racemic) [Example 7, 1-{1-[5-Chloro-3-(1-isobutylazetidin-3-yl)-2-methoxy-4-methylphenyl]ethyl}-3-methyl-1H-pyrazolo[3,4-d]pyrimidin-4-amine] it was below 10 nM.
In the case of `CNC(=O)N1CC(c2c(C#N)c(Cl)cc(C(C)n3nc(C)c4c(N)ncnc43)c2OC)C1` (single isomer, unassigned) [Example 294, 3-{3-[1-(4-Amino-3-methyl-1H-pyrazolo[3,4-d]pyrimidin-1-yl)ethyl]-5-chloro-6-cyano-2-methoxyphenyl}-N-methylazetidine-1-carboxamide], the half-maximal inhibitory concentration (IC50) is below 10 nM.
In the case of `CNC(=O)c1cc(-c2c(C)c(Cl)cc(C(C)n3nc(C)c4c(N)ncnc43)c2OC)ccn1` (racemic) [Example 17, 4-(3-(1-(4-amino-3-methyl-1H-pyrazolo[3,4-d]pyrimidin-1-yl)ethyl)-5-chloro-2-methoxy-6-methylphenyl)-N-methylpicolinamide] it was below 10 nM.
In the case of `COc1c(C(C)n2nc(C)c3c(N)ncnc32)cc(Cl)c(C)c1C1CN(C[C@@H](O)C(F)(F)F)C1` (single isomer, unassigned) [Example 115] it was below 10 nM; in that of `COc1c(C(C)n2nc(C)c3c(N)ncnc32)cc(C)c(C#N)c1C1CN(CC(C)(C)O)C1` (stereo not drawn) [Example 328, 4-[-1-(4-amino-3-methyl-1H-pyrazolo[3,4-d]pyrimidin-1-yl)ethyl]-2-[l-(2-hydroxy-2-methylpropyl)azetidin-3-yl]-3-methoxy-6-methylbenzonitrile], below 10 nM; in that of `CCNC(=O)c1c(C)c(Cl)cc(C(C)n2nc(-c3ccc4[nH]ccc4c3)c3c(N)ncnc32)c1OCC` (racemic) [Example 93, 3-{1-[4-Amino-3-(1H-indol-5-yl)-1H-pyrazolo[3,4-d]pyrimidin-1-yl]ethyl}-5-chloro-2-ethoxy-N-ethyl-6-methylbenzamide], below 10 nM.
In the case of `CCOc1c(C(C)n2nc(C)c3c(N)ncnc32)cc(Cl)c(C#N)c1-c1ccc(-c2cnn(C)n2)nc1` (racemic) [Example 337, 4-[1-(4-amino-3-methyl-1H-pyrazolo[3,4-d]pyrimidin-1-yl)ethyl]-6-chloro-3-ethoxy-2-[6-(2-methyl-2H-1,2,3-triazol-4-yl)pyridin-3-yl]benzonitrile] it was below 10 nM; in that of `COc1c(C(C)n2nc(C(F)F)c3c(N)ncnc32)cc(Cl)c(F)c1C1CN(C(C)C)C1` (stereo not shown) [Example 73, 1-{1-[5-Chloro-4-fluoro-3-(1-isopropylazetidin-3-yl)-2-methoxyphenyl]ethyl}-3-(difluoromethyl)-1H-pyrazolo[3,4-d]pyrimidin-4-amine], below 10 nM; in that of `COc1c(C(C)n2nc(C)c3c(N)ncnc32)cc(Cl)c(C)c1C1CN(CC(C)C#N)C1` (stereo not shown) [Example 162, 3-(3-{3-[1-(4-Amino-3-methyl-1H-pyrazolo[3,4-d]pyrimidin-1-yl)ethyl]-5-chloro-2-methoxy-6-methylphenyl}azetidin-1-yl)-2-methylpropanenitrile], below 10 nM.
Regarding `COc1c(C(C)n2nc(C)c3c(N)ncnc32)cc(Cl)c(C)c1-c1ccnc(C(=O)NCCO)c1` (racemic) [Example 18, 4-{3-[1-(4-Amino-3-methyl-1H-pyrazolo[3,4-d]pyrimidin-1-yl)ethyl]-5-chloro-2-methoxy-6-methylphenyl}-N-(2-hydroxyethyl)pyridine-2-carboxamide], the IC50 is below 10 nM.
Consider `COc1c(C(C)n2nc(C)c3c(N)ncnc32)cc(Cl)c(C)c1-c1cncc(C(=O)N(C)C)c1` (single isomer, unassigned) [Example 65, 5-{3-[1-(4-amino-3-methyl-1H-pyrazolo[3,4-d]pyrimidin-1-yl)ethyl]-5-chloro-2-methoxy-6-methylphenyl}-N,N-dimethylnicotinamide], for which the IC50 is below 10 nM.
In the case of `CCC(=O)N1CC(c2c(C)c(Cl)cc(C(C)n3nc(C)c4c(N)ncnc43)c2OC)C1` (stereo not shown) [Example 3, 1-{1-[5-Chloro-2-methoxy-4-methyl-3-(1-propionylazetidin-3-yl)phenyl]ethyl}-3-methyl-1H-pyrazolo[3,4-d]pyrimidin-4-amine trifluoroacetate] it was below 10 nM.
In the case of `CNC(=O)[C@@H](C)N1CC(c2c(C)c(C#N)cc(C(C)n3nc(C(F)F)c4c(N)ncnc43)c2OC)C1` (stereo partly drawn) [Example 135, (2R)-2-[3-(3-{1-[4-Amino-3-(difluoromethyl)-1H-pyrazolo[3,4-d]pyrimidin-1-yl]ethyl}-5-cyano-2-methoxy-6-methylphenyl)azetidin-1-yl]-N-methylpropanamide] it was below 10 nM; in that of `COc1c(C(C)n2nc(C)c3c(N)ncnc32)cc(Cl)c(C)c1-c1ccc(C(=O)N(C)C)nc1` (stereo not shown) [Example 11, 5-{3-[1-(4-Amino-3-methyl-1H-pyrazolo[3,4-d]pyrimidin-1-yl)ethyl]-5-chloro-2-methoxy-6-methylphenyl}-N,N-dimethylpyridine-2-carboxamide bis(trifluoroacetate)], below 10 nM.
For `CCN1CC(c2c(C)c(Cl)cc(C(C)n3nc(C)c4c(N)ncnc43)c2OC)C1` (racemic) [Example 6, 1-{1-[5-Chloro-3-(1-ethylazetidin-3-yl)-2-methoxy-4-methylphenyl]ethyl}-3-methyl-1H-pyrazolo[3,4-d]pyrimidin-4-amine], the IC50 was below 10 nM.
In the case of `CCOc1c(C(C)n2nc(C)c3c(N)ncnc32)cc(Cl)c(C#N)c1C1CN(C(C)(C)C(=O)OC(C)(C)C)C1` (stereo not shown) [Example 236, tert-Butyl 2-(3-{3-[1-(4-amino-3-methyl-1H-pyrazolo[3,4-d]pyrimidin-1-yl)ethyl]-5-chloro-6-cyano-2-ethoxyphenyl}azetidin-1-yl)-2-methylpropanoate] it was below 10 nM; in that of `COc1c(C(C)n2nc(C)c3c(N)ncnc32)cc(Cl)c(C#N)c1C1CN(CC2CCOC2)C1` (single isomer, unassigned) [Example 279, 4-[1-(4-Amino-3-methyl-1H-pyrazolo[3,4-d]pyrimidin-1-yl)ethyl]-6-chloro-3-methoxy-2-[1-(tetrahydrofuran-3-ylmethyl)azetidin-3-yl]benzonitrile], below 10 nM; in that of `CCNC(=O)c1c(C)c(Cl)cc(C(C)n2nc(-c3cn[nH]c3)c3c(N)ncnc32)c1OCC` (racemic) [Example 87, 3-{1-[4-Amino-3-(1H-pyrazol-4-yl)-1H-pyrazolo[3,4-d]pyrimidin-1-yl]ethyl}-5-chloro-2-ethoxy-N-ethyl-6-methylbenzamide], below 10 nM.
In the case of `COCCN1CC(c2c(C)c(Cl)cc(C(C)n3nc(C)c4c(N)ncnc43)c2OC)C1` (racemic) [Example 9, 1-(1-{5-Chloro-2-methoxy-3-[1-(2-methoxyethyl)azetidin-3-yl]-4-methylphenyl}ethyl)-3-methyl-1H-pyrazolo[3,4-d]pyrimidin-4-amine] it was below 10 nM; in that of `COc1c(C(C)n2nc(C)c3c(N)ncnc32)cc(Cl)c(C#N)c1C1CN(C(N)=O)C1` (single isomer, unassigned) [Example 293, 3-{3-[1-(4-Amino-3-methyl-1H-pyrazolo[3,4-d]pyrimidin-1-yl)ethyl]-5-chloro-6-cyano-2-methoxyphenyl}azetidine-1-carboxamide], below 10 nM; in that of `CCC(C)N1CC(c2c(C)c(Cl)cc(C(C)n3nc(C)c4c(N)ncnc43)c2OC)C1` (stereo not shown) [Example 8, 1-{1-[3-(1-sec-butylazetidin-3-yl)-5-chloro-2-methoxy-4-methylphenyl]ethyl}-3-methyl-1H-pyrazolo[3,4-d]pyrimidin-4-amine], below 10 nM.
In the case of `COc1c(C(C)n2nc(-c3cn[nH]c3)c3c(N)ncnc32)cc(Cl)c(C)c1C1CN(CC#N)C1` (stereo not shown) [Example 126, [3-(3-{1-[4-Amino-3-(1H-pyrazol-4-yl)-1H-pyrazolo[3,4-d]pyrimidin-1-yl]ethyl}-5-chloro-2-methoxy-6-methylphenyl)azetidin-1-yl]acetonitrile] it was below 10 nM; in that of `CCOc1c(C(C)n2nc(C)c3c(N)ncnc32)cc(Cl)c(C#N)c1-c1cncc(-c2ncco2)c1` (racemic) [Example 339, 4-[1-(4-amino-3-methyl-1H-pyrazolo[3,4-d]pyrimidin-1-yl)ethyl]-6-chloro-3-ethoxy-2-[5-(1,3-oxazol-2-yl)pyridin-3-yl]benzonitrile], below 10 nM.
